Experiments:
[1] = target: NUAK family SNF1-like kinase 1 (Homo sapiens) (UniProt O60285); test: Inhibition of human ARK5 at 100 nM using KKKVSRSGLYRSPSMPENLNRPR as substrate by [gamma-33P]-ATP assay
[2] = target: Serine/threonine-protein kinase BRSK1 (Homo sapiens) (UniProt Q8TDC3); test: Inhibition of human BRSK1 at 100 nM using KKKVSRSGLYRSPSMPENLNRPR as substrate by [gamma-33P]-ATP assay
[3] = target: NT-3 growth factor receptor (Homo sapiens) (UniProt Q16288); test: Inhibition of human TRKC at 100 nM using poly[Glu:Tyr] (4:1) as substrate by [gamma-33P]-ATP assay
[4] = target: Tyrosine-protein kinase Tec (Homo sapiens) (UniProt P42680); test: Inhibition of human TEC at 100 nM using poly[Glu:Tyr] (4:1) as substrate by [gamma-33P]-ATP assay
[5] = organism: Homo sapiens; test: Inhibition of human AMPK (A2/B2/G2) at 100 nM using HMRSAMSGLHLVKRR as substrate by [gamma-33P]-ATP assay
[6] = target: Serine/threonine-protein kinase MRCK gamma (Homo sapiens) (UniProt Q6DT37); test: Inhibition of human DMPK2 at 100 nM using KKRPQRRYSNVF as substrate by [gamma-33P]-ATP assay
[7] = target: Dual specificity protein kinase CLK4 (Homo sapiens) (UniProt Q9HAZ1); test: Inhibition of human CLK4 at 100 nM using MBP as substrate by [gamma-33P]-ATP assay
[8] = target: Dual specificity tyrosine-phosphorylation-regulated kinase 1B (Homo sapiens) (UniProt Q9Y463); test: Inhibition of human DYRK1B at 100 nM using RRRFRPASPLRGPPK as substrate by [gamma-33P]-ATP assay
Chain of Dual specificity tyrosine-phosphorylation-regulated kinase 1B (Homo sapiens) (Q9Y463 whole entry, looked up): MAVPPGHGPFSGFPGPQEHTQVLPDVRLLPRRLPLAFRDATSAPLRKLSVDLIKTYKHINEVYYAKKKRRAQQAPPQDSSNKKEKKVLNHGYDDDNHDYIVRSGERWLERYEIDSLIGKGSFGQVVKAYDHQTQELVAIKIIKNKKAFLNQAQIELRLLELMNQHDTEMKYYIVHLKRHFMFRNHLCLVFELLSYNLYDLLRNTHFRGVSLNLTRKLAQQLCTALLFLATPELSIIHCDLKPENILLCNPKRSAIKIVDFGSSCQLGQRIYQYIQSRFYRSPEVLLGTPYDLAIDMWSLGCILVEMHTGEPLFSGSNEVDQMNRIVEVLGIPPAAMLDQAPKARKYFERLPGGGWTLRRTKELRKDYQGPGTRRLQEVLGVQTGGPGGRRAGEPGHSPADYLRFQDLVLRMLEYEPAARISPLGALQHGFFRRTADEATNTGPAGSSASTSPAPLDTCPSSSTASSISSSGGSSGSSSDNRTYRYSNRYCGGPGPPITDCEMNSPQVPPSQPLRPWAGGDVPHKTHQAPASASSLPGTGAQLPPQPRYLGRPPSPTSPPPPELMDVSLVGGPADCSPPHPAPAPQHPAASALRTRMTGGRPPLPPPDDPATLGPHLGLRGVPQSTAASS

[9] = Inhibition of PI3K/Akt/mTOR signaling in human HeLa cells assessed as reduction in S6 phosphorylation incubated for 24 hrs by Western blot analysis; type: cell-based
[10] = target: Rhodopsin kinase GRK1 (Homo sapiens) (UniProt Q15835); test: Inhibition of human GRK1 at 100 nM using casein as substrate by [gamma-33P]-ATP assay
[11] = Inhibition of PI3K/Akt/mTOR signaling in human HeLa cells assessed as reduction in AKT 473 phosphorylation incubated for 24 hrs by Western blot analysis; type: cell-based
[12] = target: RAC-alpha serine/threonine-protein kinase (Homo sapiens) (UniProt P31749); test: Inhibition of human AKT1 at 100 nM using KGSGSGRPRTSSFAEG as substrate by [gamma-33P]-ATP assay
Chain of RAC-alpha serine/threonine-protein kinase (Homo sapiens) (P31749 whole entry): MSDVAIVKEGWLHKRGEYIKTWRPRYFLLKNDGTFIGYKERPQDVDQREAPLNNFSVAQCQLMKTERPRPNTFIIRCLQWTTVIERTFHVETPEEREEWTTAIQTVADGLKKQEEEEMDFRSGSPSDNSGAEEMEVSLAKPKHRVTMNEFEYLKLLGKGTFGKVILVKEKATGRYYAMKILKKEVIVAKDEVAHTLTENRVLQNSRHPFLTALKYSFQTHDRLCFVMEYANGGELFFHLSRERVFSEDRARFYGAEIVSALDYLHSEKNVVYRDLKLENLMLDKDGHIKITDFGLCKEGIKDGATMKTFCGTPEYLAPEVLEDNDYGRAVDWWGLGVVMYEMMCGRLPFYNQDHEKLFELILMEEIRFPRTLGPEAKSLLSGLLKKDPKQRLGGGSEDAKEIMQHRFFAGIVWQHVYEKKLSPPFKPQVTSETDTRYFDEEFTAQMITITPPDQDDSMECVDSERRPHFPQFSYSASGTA

[13] = target: Serine/threonine-protein kinase PAK 5 (Homo sapiens) (UniProt Q9P286); test: Inhibition of human PAK5 at 100 nM using RRRLSFAEPG as substrate by [gamma-33P]-ATP assay
[14] = target: Calcium/calmodulin-dependent protein kinase type II subunit alpha (Homo sapiens) (UniProt Q9UQM7); test: Inhibition of human CAMK2A at 100 nM using KKALRRQETVDAL as substrate by [gamma-33P]-ATP assay
[15] = target: Fibroblast growth factor receptor 4 (Homo sapiens) (UniProt P22455); test: Inhibition of human FGFR4 at 100 nM using poly[Glu:Tyr] (4:1) as substrate by [gamma-33P]-ATP assay
[16] = target: Cyclin-dependent kinase 5/CDK5 activator 1 (Homo sapiens) (UniProt Q00535+Q15078); test: Inhibition of human CDK5/p35 at 100 nM using histone H1 as substrate by [gamma-33P]-ATP assay; type: protein-complex assay
[17] = target: Receptor-interacting serine/threonine-protein kinase 4 (Homo sapiens) (UniProt P57078); test: Inhibition of human RIPK4 at 100 nM using histone H2A as substrate by [gamma-33P]-ATP assay
[18] = target: Casein kinase I isoform gamma-3 (Homo sapiens) (UniProt Q9Y6M4); test: Inhibition of human CK1gamma3 at 100 nM using KRRRAL[pS]VASLPGL as substrate by [gamma-33P]-ATP assay
Chain of Casein kinase I isoform gamma-3 (Homo sapiens) (Q9Y6M4 whole entry, looked up, canonical isoform): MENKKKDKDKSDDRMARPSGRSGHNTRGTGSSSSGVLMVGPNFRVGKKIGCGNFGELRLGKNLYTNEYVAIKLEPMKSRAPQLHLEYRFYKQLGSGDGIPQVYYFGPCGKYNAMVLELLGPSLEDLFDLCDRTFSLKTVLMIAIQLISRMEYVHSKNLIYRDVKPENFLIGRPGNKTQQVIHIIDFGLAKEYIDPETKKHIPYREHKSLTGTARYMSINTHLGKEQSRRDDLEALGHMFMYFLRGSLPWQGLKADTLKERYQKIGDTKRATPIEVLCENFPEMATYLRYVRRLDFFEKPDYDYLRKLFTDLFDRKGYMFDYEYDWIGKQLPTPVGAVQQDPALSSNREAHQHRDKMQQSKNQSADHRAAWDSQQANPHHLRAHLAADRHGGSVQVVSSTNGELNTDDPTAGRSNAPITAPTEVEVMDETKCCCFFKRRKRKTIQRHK

[19] = target: CDK6/cyclin D3 (Homo sapiens) (UniProt P30281+Q00534); test: Inhibition of human CDK6/cyclin-D3 at 100 nM using RB protein as substrate by [gamma-33P]-ATP assay; type: protein-complex assay
[20] = target: Serine/threonine-protein kinase mTOR (Homo sapiens, UniProt P42345); test: Inhibition of recombinant human N-terminal FLAG-tagged mTOR (1362 to end residues) using Ulight-4E-BP1 as substrate incubated for 30 mins by fluorescence assay
[21] = target: LIM domain kinase 2 (Homo sapiens) (UniProt P53671); test: Inhibition of human LIMK2 at 100 nM using cofilin as substrate by [gamma-33P]-ATP assay
[22] = target: Dual specificity tyrosine-phosphorylation-regulated kinase 4 (Homo sapiens) (UniProt Q9NR20); test: Inhibition of human DYRK4 at 100 nM using RRRFRPASPLRGPPK as substrate by [gamma-33P]-ATP assay
[23] = target: Ephrin type-A receptor 8 (Homo sapiens) (UniProt P29322); test: Inhibition of human EPHA8 at 100 nM using poly[Glu:Tyr] (4:1) as substrate by [gamma-33P]-ATP assay
[24] = target: Tyrosine-protein kinase receptor UFO (Homo sapiens) (UniProt P30530); test: Inhibition of human AXL at 100 nM using EAIYAAPFAKKK as substrate by [gamma-33P]-ATP assay
Chain of Tyrosine-protein kinase receptor UFO (Homo sapiens) (P30530 whole entry, canonical isoform): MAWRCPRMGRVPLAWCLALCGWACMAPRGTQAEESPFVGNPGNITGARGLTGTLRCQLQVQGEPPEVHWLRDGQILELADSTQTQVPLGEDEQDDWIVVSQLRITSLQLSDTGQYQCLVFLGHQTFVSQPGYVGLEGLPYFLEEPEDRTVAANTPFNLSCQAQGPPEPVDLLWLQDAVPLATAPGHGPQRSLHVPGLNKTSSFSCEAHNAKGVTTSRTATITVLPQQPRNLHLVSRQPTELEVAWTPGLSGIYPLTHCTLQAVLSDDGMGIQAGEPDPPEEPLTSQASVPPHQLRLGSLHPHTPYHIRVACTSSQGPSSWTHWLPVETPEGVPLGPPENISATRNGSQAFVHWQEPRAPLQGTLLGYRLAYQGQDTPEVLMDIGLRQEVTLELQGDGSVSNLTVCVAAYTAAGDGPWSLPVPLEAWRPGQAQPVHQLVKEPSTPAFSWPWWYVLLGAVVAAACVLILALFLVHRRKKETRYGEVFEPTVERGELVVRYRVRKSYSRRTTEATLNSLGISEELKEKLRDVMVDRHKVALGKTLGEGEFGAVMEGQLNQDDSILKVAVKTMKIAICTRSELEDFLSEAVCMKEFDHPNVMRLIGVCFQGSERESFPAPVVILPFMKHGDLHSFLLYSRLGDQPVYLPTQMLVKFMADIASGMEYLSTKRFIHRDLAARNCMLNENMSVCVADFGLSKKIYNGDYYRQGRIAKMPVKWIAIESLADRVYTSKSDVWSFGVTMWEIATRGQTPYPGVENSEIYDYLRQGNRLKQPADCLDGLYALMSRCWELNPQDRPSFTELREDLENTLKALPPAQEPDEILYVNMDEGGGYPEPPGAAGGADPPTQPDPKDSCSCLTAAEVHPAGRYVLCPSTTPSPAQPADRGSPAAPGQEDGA

[25] = target: Casein kinase I isoform gamma-1 (Homo sapiens) (UniProt Q9HCP0); test: Inhibition of human CK1gamma1 at 100 nM using KRRRAL[pS]VASLPGL as substrate by [gamma-33P]-ATP assay
[26] = test system: HCT-116; test: Antiproliferative activity against human HCT116 cells assessed as reduction in cell viability incubated for 72 hrs by MTT assay; type: functional, cell-based; details: HCT-116, 72 h
[27] = test system: A549; test: Antitumor activity against human A549 cells xenografted in BALB/c nude mouse assessed as tumor growth inhibition at 20 mg/kg, ig administered for 30 days measured every 3 days during compound dosing relative to control; type: functional; details: A549, po, read-out: TGI
[28] = target: Serine/threonine-protein kinase VRK2 (Homo sapiens) (UniProt Q86Y07); test: Inhibition of human VRK2 at 100 nM using casein as substrate by [gamma-33P]-ATP assay
Chain of Serine/threonine-protein kinase VRK2 (Homo sapiens) (Q86Y07 whole entry): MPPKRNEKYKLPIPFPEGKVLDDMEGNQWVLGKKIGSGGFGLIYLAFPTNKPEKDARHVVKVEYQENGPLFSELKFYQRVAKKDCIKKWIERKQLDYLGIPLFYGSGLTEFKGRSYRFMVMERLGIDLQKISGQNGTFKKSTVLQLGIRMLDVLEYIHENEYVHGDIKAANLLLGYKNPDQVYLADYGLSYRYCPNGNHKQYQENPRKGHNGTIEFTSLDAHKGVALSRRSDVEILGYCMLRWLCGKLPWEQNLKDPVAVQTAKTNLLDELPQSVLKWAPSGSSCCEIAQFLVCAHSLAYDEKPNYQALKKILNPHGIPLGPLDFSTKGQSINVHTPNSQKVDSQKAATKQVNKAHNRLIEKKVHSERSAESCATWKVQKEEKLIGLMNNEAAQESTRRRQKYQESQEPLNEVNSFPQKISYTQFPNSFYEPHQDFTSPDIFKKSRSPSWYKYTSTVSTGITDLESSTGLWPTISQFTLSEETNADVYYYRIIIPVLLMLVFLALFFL

[29] = target: STE20/SPS1-related proline-alanine-rich protein kinase (Homo sapiens) (UniProt Q9UEW8); test: Inhibition of human STK39 at 100 nM using MBP as substrate by [gamma-33P]-ATP assay
[30] = target: Insulin receptor-related protein (Homo sapiens) (UniProt P14616); test: Inhibition of human IRR at 100 nM using MBP as substrate by [gamma-33P]-ATP assay
Chain of Insulin receptor-related protein (Homo sapiens) (P14616 27-742 limits assumed): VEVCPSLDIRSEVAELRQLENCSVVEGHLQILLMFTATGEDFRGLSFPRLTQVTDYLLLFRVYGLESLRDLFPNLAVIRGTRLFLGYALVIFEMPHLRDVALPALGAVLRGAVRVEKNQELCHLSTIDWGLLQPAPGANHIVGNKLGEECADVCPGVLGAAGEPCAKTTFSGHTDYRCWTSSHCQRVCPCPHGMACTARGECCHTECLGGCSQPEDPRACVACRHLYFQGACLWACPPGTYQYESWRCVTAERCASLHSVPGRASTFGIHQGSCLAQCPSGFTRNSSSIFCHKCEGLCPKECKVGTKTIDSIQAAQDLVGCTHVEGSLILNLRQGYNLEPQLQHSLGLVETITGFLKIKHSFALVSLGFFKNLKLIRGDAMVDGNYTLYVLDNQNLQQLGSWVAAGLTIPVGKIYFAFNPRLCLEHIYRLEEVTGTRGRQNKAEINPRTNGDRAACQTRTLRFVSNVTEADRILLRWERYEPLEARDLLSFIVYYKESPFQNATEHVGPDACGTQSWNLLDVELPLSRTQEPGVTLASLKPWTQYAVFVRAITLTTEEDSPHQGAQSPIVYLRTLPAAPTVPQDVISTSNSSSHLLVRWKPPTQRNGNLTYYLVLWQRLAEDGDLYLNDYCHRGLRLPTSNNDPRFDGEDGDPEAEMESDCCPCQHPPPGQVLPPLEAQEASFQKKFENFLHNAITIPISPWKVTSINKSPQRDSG
Chain of Insulin receptor-related protein (Homo sapiens) (P14616 747-1297 limits assumed): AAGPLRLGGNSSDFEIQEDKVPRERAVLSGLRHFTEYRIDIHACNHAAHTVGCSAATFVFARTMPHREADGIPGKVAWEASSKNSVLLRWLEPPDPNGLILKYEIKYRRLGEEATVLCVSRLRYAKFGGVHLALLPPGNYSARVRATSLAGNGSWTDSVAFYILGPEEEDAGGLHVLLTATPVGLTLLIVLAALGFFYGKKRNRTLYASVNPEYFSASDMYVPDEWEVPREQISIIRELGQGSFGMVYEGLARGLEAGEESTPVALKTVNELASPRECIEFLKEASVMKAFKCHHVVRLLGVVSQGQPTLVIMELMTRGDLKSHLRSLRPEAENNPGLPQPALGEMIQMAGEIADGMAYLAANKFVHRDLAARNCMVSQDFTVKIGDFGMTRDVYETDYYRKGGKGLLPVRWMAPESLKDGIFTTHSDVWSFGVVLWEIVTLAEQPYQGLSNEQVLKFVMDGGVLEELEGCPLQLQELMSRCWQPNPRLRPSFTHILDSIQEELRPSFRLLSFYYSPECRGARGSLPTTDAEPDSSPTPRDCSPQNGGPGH

[31] = test system: HepG2; test: cells; details: Homo sapiens, HepG2, 72 h

Chain of NUAK family SNF1-like kinase 1 (Homo sapiens) (O60285 whole entry): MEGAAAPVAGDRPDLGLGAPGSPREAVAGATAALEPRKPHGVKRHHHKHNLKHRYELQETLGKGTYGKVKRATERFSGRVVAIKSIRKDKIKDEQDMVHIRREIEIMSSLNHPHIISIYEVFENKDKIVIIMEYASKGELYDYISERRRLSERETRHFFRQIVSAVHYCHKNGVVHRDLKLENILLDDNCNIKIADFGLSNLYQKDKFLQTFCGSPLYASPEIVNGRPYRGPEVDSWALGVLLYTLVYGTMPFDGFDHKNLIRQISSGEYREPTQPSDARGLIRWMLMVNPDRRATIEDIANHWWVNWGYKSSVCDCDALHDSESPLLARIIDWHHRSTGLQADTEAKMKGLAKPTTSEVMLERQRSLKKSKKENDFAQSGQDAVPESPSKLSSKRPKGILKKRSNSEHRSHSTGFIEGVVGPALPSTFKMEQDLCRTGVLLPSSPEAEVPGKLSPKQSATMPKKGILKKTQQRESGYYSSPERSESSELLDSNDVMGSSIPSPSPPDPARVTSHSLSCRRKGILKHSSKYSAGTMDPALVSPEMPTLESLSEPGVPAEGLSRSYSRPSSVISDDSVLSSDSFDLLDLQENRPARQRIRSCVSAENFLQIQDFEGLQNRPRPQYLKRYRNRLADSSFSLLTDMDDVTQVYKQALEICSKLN

SMILES: COc1ccc(N2C(=O)COc3ccc(-c4cnc(OC)c(NS(=O)(=O)c5ccc(F)cc5)c4)cc32)cc1
- inhibition [1]: 0.26%
- inhibition [2]: 12.8%
- inhibition [3]: 2.63%
- inhibition [4]: -4.06%
- inhibition [5]: -8.51%
- inhibition [6]: -9.5%
- inhibition [7]: 6.64%
- inhibition [8]: 18.8%
- inhibition [9]: Dose-dependent effect
- inhibition [10]: -9.8%
- inhibition [11]: Dose-dependent effect
- inhibition [12]: 18.2%
- inhibition [13]: -1.26%
- inhibition [14]: 0.08%
- inhibition [15]: 6.2%
- inhibition [16]: 8.65%
- inhibition [17]: 1.41%
- inhibition [18]: -3.55%
- inhibition [19]: 3.81%
- IC50 [20]: 13.9 nM
- inhibition [21]: 2.98%
- inhibition [22]: -2.6%
- inhibition [23]: -2.71%
- inhibition [24]: 25.4%
- inhibition [25]: 6.26%
- IC50 [26]: 13.4 µM
- inhibition in vivo at 20 mg/kg [27]: 57.8%
- inhibition [28]: 7%
- inhibition [29]: 10%
- inhibition [30]: 14.4%
- IC50 [31]: 13.1 µM

— ChEMBL document CHEMBL4364276, “Discovery of 4-phenyl-2H-benzo[b][1,4]oxazin-3(4H)-one derivatives as potent and orally active PI3K/mTOR dual inhibitors” (Eur J Med Chem, 2019)
